Test results taken from patent US20250177393A1, “MODULATORS OF MYC FAMILY PROTO-ONCOGENE PROTEIN” (Nalo Therapeutics, priority 2022, published 2025).
Like-named read-outs stand apart in the source and are kept apart here.

Assays:
MycN = target: T1, MycN (Homo sapiens, UniProt P04198); assay: Degradation of MycN protein in SK-N-BE(2) cells (JESS/Western blot); format: cell-based; details: for Dmax at 6 µM: read-out: % Degradation of MycN (SKNBE2) 24 h, 6 μM; for Dmax at 0.5 µM: read-out: % Degradation of MycN (SKNBE2) 24 h, 0.5 μM; for Dmax at 1 µM: read-out: % Degradation of MycN (SKNBE2) 24 h, 1 μM; for Dmax at 3 µM: read-out: % Degradation of MycN (SKNBE2) 24 h, 3 μM
T1 construct: endogenous in cells; host or cells: SK-N-BE(2)
T1 sequence (P04198 1-464): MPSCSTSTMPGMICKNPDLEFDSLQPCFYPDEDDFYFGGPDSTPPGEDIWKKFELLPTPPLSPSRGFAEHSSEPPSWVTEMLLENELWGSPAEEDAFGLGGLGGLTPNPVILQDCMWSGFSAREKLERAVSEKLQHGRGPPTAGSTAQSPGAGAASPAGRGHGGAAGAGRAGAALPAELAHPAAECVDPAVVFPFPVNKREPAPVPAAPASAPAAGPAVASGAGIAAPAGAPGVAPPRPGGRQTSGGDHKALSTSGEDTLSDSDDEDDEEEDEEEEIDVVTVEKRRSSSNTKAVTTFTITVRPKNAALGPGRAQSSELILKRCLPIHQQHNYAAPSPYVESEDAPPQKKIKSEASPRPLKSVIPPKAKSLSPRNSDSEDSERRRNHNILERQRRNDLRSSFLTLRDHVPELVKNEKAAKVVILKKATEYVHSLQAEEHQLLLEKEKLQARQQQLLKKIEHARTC
Procedure: (§1) For L363 cells (suspension), 1E6 cells were plated into each well of a 6 well plate. For SK—N-BE(2) cells (adherent), 5E5 cells were plated into each well of a 6 well dish. […] All compounds were diluted to 10 mM in DMSO. Cells were treated with the compound for 24 hrs, then for both cell types, media containing cells were removed from wells into a 15 ml centrifuge tube, and remaining adherent SK—N-BE(2) cells were also scraped from the wells into the appropriate tubes. Tubes were centrifuged, cells were washed with PBS then re-centrifuged to pellet cells. A RIPA buffer cocktail was added to the cells on ice for 5 mins. Cell lysates were clarified by centrifugation and stored at −80 degrees until required. BCA assay was performed on each lysate to determine the protein concentration. For validation studies of antibodies, lysates and antibodies were used at a number of concentrations (Lysates: 2, 1, 0.2 mg/ml; Antibodies: 1 in 50, 1 in 200 dilution). Once an appropriate lysate concentration and antibody concentration was determined, samples were screened in the JESS technology (Protein Simple, San Jose, CA—https://www.proteinsimple.com/jess.html). Target protein antibodies (n-myc and c-myc) were detected in the chemiluminescence channel and loading controls (tubulin and GAPDH) were detected using a Near Infra Red (NIR) labeled secondary antibody. For SK—N-EB2 adherent cells, 5E5 cells in 1.9 mls media were plated into 6 well dishes and incubated for 24 hrs. […] Cells were scrapped off the plate, centrifuged, washed with PBS, centrifuged, then a RIPA buffer cocktail added to the cells (100 ul), centrifuged and stored at −80 for later analysis. For L363 suspension cells, 1E6 cells were plated into 24 well dishes (950 ul media) and incubated for 24 hrs. […] Cells were aspirated into tubes, centrifuged, washed with PBS, centrifuged, then a RIPA buffer cocktail added to the cells (100 ul), centrifuged and stored at −80 for later analysis. For Western blot, a BCA (total protein) assay was run on all samples, these were then run in batches of 5 compounds plus control (DMSO) on each Western blot run—n-myc and c-myc were run in separate experiments in the chemiluminescence channel. Both tubulin and GAPDH were run as loading controls in all lanes in the near infra red channel.

MycC = target: T2, MycC (Homo sapiens, UniProt P01106); assay: Degradation of MycC protein in L363 cells (JESS/Western blot); format: cell-based; details: for Dmax at 0.5 µM: read-out: % Degradation of MycC (L-363) 24 h, 0.5 μM; for Dmax at 1 µM: read-out: % Degradation of MycC (L-363) 24 h, 1 μM; for Dmax at 3 µM: read-out: % Degradation of MycC (L-363) 24 h, 3 μM; for Dmax at 6 µM: read-out: % Degradation of MycC (L-363) 24 h, 6 μM
T2 construct: endogenous in cells; host or cells: L363
Procedure: as §1

T2 sequence (P01106 whole entry): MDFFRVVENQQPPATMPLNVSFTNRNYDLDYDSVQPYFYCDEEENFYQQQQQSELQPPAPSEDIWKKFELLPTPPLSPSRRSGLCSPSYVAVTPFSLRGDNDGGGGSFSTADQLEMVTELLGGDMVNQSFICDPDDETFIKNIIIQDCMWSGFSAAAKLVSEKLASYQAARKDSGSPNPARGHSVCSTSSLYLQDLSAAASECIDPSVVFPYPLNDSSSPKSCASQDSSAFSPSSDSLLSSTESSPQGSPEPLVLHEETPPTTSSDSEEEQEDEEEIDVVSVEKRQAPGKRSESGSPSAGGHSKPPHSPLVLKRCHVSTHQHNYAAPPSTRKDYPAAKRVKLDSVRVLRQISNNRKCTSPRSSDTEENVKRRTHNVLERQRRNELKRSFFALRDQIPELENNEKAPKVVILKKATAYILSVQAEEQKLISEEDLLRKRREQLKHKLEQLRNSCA

| SMILES | Dmax at 6 µM (MycN; SKNBE2 cells, 24 h, 6 μM) [%] | Dmax at 0.5 µM (MycC; L-363 cells, 24 h, 0.5 μM) [%] | Dmax at 1 µM (MycC; L-363 cells, 24 h, 1 μM) [%] | Dmax at 3 µM (MycC; L-363 cells, 24 h, 3 μM) [%] | Dmax at 6 µM (MycC; L-363 cells, 24 h, 6 μM) [%] | Dmax at 0.5 µM (MycN; SKNBE2 cells, 24 h, 0.5 μM) [%] | Dmax at 1 µM (MycN; SKNBE2 cells, 24 h, 1 μM) [%] | Dmax at 3 µM (MycN; SKNBE2 cells, 24 h, 3 μM) [%] | Dmax at 0.5 µM (MycN; SKNBE2, 24 h) [%] | Dmax at 3 µM (MycN; SKNBE2, 24 h) [%] | Dmax at 6 µM (MycN; SKNBE2, 24 h) [%] | Dmax at 0.5 µM (MycC; L-363, 24 h) [%] | Dmax at 1 µM (MycC; L-363, 24 h) [%] | Dmax at 3 µM (MycC; L-363, 24 h) [%] | Dmax at 6 µM (MycC; L-363, 24 h) [%] | Dmax at 1 µM (MycN; SKNBE2, 24 h) [%] |
| --- | --- | --- | --- | --- | --- | --- | --- | --- | --- | --- | --- | --- | --- | --- | --- | --- |
| c1cc(Nc2cc(C3CC3)[nH]n2)nc(NC2CC3(CNC3)C2)n1 [Compound 28, N^4-(5-cyclopropyl-1H-pyrazol-3-yl)-N^2-(2-azaspiro[3.3]heptan-6-yl)pyrimidine-2,4-diamine] | < 20 | < 20 | < 20 | < 20 | 20 to 49 | – | – | – | – | – | – | – | – | – | – | – |
| CN1CC2(CC(Nc3nccc(Nc4cc(C5CCCC5)[nH]n4)n3)C2)C1 [Compound 38, N^4-(5-cyclopentyl-1H-pyrazol-3-yl)-N^2-(2-methyl-2-azaspiro[3.3]heptan-6-yl)pyrimidine-2,4-diamine] | 80 to 100 | 20 to 49 | 50 to 79 | 20 to 49 | 50 to 79 | 20 to 49 | 50 to 79 | 80 to 100 | – | – | – | – | – | – | – | – |
| CN1CCC(Nc2nccc(Nc3cc(C4CCCC4)[nH]n3)n2)CC1 [Compound 31] | – | – | – | – | – | – | – | – | < 20 | 80 to 100 | 80 to 100 | 50 to 79 | 50 to 79 | 80 to 100 | 80 to 100 | – |
| CN1CC2(CCC(Nc3nccc(Nc4cc(C5CCCC5)[nH]n4)n3)CC2)C1 [Compound 20, N^4-(5-Cyclopentyl-1H-pyrazol-3-yl)-N^2-(2-methyl-2-azaspiro[3.5]nonan-7-yl)pyrimidine-2,4-diamine] | 80 to 100 | 80 to 100 | 80 to 100 | 80 to 100 | 80 to 100 | 80 to 100 | 80 to 100 | 80 to 100 | – | – | – | – | – | – | – | – |
| CN1CC2(CCC(Nc3nccc(Nc4cc(C5CC5)[nH]n4)n3)CC2)C1 [Compound 34, N^4-(5-cyclopropyl-1H-pyrazol-3-yl)-N^2-(2-methyl-2-azaspiro[3.5]nonan-7-yl)pyrimidine-2,4-diamine] | 80 to 100 | < 20 | 50 to 79 | 80 to 100 | 80 to 100 | 80 to 100 | 80 to 100 | 80 to 100 | – | – | – | – | – | – | – | – |
| c1cc(Nc2cc(C3CC3)[nH]n2)nc(NC2CCC3(CC2)CNC3)n1 [Compound 33, N^4-(5-Cyclopropyl-1H-pyrazol-3-yl)-N^2-(2-azaspiro[3.5]nonan-7-yl)pyrimidine-2,4-diamine] | 80 to 100 | – | < 20 | 20 to 49 | 80 to 100 | 20 to 49 | 20 to 49 | 80 to 100 | – | – | – | – | – | – | – | – |
| CN1CC2(CC(Nc3nccc(Nc4cc(C5CC5)[nH]n4)n3)C2)C1 [Compound 36, N^4-(5-cyclopropyl-1H-pyrazol-3-yl)-N^2-(2-methyl-2-azaspiro[3.3]heptan-6-yl)pyrimidine-2,4-diamine] | 80 to 100 | 20 to 49 | 50 to 79 | 20 to 49 | 50 to 79 | < 20 | < 20 | 20 to 49 | – | – | – | – | – | – | – | – |
| CN1CC2(CCC(N(C)c3nccc(Nc4cc(C5CC5)[nH]n4)n3)CC2)C1 [Compound 49, N4-(5-Cyclopropyl-1H-pyrazol-3-yl)-N2-methyl-N2-(2-methyl-2-azaspiro[3.5]nonan-7-yl)pyrimidine-2,4-diamine] | 80 to 100 | 50 to 79 | 80 to 100 | 80 to 100 | 80 to 100 | 50 to 79 | 80 to 100 | 80 to 100 | – | – | – | – | – | – | – | – |
| F[C@H]1CNCC[C@H]1Nc1nccc(Nc2cc(C3CC3)[nH]n2)n1 [Compound 41, N4-(5-Cyclopropyl-1H-pyrazol-3-yl)-N2-[(3S,4R)-3-fluoro-4-piperidyl]pyrimidine-2,4-diamine] | 80 to 100 | – | – | – | 80 to 100 | < 20 | < 20 | 20 to 49 | – | – | – | – | – | – | – | – |
| c1cc(Nc2cc(C3CC3)[nH]n2)nc(NC2CCNCC2)n1 [Compound 29] | 80 to 100 | 50 to 79 | 80 to 100 | 80 to 100 | 80 to 100 | – | < 20 | 80 to 100 | – | – | – | – | – | – | – | – |
| CN1CC[C@@H](Nc2nccc(Nc3cc(C4CC4)[nH]n3)n2)[C@@H](F)C1 [Compound 42, N4-(5-Cyclopropyl-1H-pyrazol-3-yl)-N2-[(3S,4R)-3-fluoro-1-methyl-4-piperidyl]pyrimidine-2,4-diamine] | 50 to 79 | – | – | – | – | – | 20 to 49 | 20 to 49 | – | – | – | – | – | – | – | – |
| c1cc(Nc2cc(C3CC3)[nH]n2)nc(NCC23CNC(C2)C3)n1 [Compound 3, N^2-((2-Azabicyclo[2.1.1]hexan-4-yl)methyl)-N^4-(5-cyclopropyl-1H-pyrazol-3-yl)pyrimidine-2,4-diamine] | – | – | – | – | – | – | – | – | < 20 | < 20 | 20 to 49 | – | – | – | – | < 20 |
| CN(CC12CNC(C1)C2)c1nccc(Nc2cc(C3CC3)[nH]n2)n1 [Compound 2, N^2-((2-Azabicyclo[2.1.1]hexan-4-yl)methyl)-N^4-(5-cyclopropyl-1H-pyrazol-3-yl)-N^2-methylpyrimidine-2,4-diamine] | 50 to 79 | – | – | – | – | 20 to 49 | < 20 | 20 to 49 | – | – | – | – | – | – | – | – |
